# Experimental data as given in PubChem BioAssay (NCI).
#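 How tested: cells in 96-well plates exposed to compound for 48 hours at five concentrations. At the GI50, growth is halved. At the TGI there is no net growth.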
# Experiments:
# Test in all cases: inhibition of tumour cell growth, NCI panel, 48 h
# SN12C renal = test system: SN12C renal
# COLO 205 colon = test system: COLO 205 colon
# SK-MEL-5 melanoma = test system: SK-MEL-5 melanoma
# NCI-H226 lung = test system: NCI-H226 lung
# TK-10 renal = test system: TK-10 renal
# OVCAR-4 ovarian = test system: OVCAR-4 ovarian
# M14 melanoma = test system: M14 melanoma
# LOX IMVI melanoma = test system: LOX IMVI melanoma
# 786-0 renal = test system: 786-0 renal
# SK-MEL-2 melanoma = test system: SK-MEL-2 melanoma
# CCRF-CEM leukemia = test system: CCRF-CEM leukemia
# CAKI-1 renal = test system: CAKI-1 renal
# A549 NSCLC = test system: A549 NSCLC
# MDA-MB-231 breast = test system: MDA-MB-231 breast
# SF-539 CNS = test system: SF-539 CNS
# BT-549 breast = test system: BT-549 breast
# SF-295 CNS = test system: SF-295 CNS
# UACC-62 melanoma = test system: UACC-62 melanoma
# OVCAR-3 ovarian = test system: OVCAR-3 ovarian
# OVCAR-5 ovarian = test system: OVCAR-5 ovarian
# IGROV1 ovarian = test system: IGROV1 ovarian
# HT29 colon = test system: HT29 colon
# NCI-H460 lung = test system: NCI-H460 lung
# SK-OV-3 ovarian = test system: SK-OV-3 ovarian
# HCC-2998 colon = test system: HCC-2998 colon
# MOLT-4 leukemia = test system: MOLT-4 leukemia
# SR leukemia = test system: SR leukemia
# HL-60(TB) leukemia = test system: HL-60(TB) leukemia
# UACC-257 melanoma = test system: UACC-257 melanoma
compound,measurement,setting,value
CN1CCN(c2ccc(Nc3nc(NCCCNS(=O)(=O)c4cccc(F)c4)c4sccc4n3)cc2)CC1,TGI,SN12C renal,23.8 µM
same,GI50,COLO 205 colon,3.61 µM
same,TGI,COLO 205 colon,16.1 µM
same,GI50,SK-MEL-5 melanoma,3.49 µM
same,TGI,SK-MEL-5 melanoma,12 µM
same,GI50,NCI-H226 lung,6.63 µM
same,TGI,NCI-H226 lung,20.1 µM
same,GI50,TK-10 renal,14.5 µM
same,TGI,TK-10 renal,28.2 µM
same,GI50,OVCAR-4 ovarian,3.45 µM
same,TGI,OVCAR-4 ovarian,14.7 µM
same,GI50,M14 melanoma,1.78 µM
same,TGI,M14 melanoma,3.69 µM
same,GI50,LOX IMVI melanoma,1.74 µM
same,TGI,LOX IMVI melanoma,3.58 µM
same,GI50,786-0 renal,2.47 µM
same,TGI,786-0 renal,6.25 µM
same,GI50,SK-MEL-2 melanoma,12.8 µM
same,TGI,SK-MEL-2 melanoma,25.9 µM
same,GI50,CCRF-CEM leukemia,3.99 µM
same,TGI,CCRF-CEM leukemia,> 100 µM
same,GI50,CAKI-1 renal,10.8 µM
same,TGI,CAKI-1 renal,22.6 µM
same,GI50,A549 NSCLC,10 µM
same,TGI,A549 NSCLC,23.7 µM
same,GI50,MDA-MB-231 breast,3.54 µM
same,TGI,MDA-MB-231 breast,12.7 µM
same,GI50,SF-539 CNS,1.67 µM
same,TGI,SF-539 CNS,3.18 µM
same,GI50,BT-549 breast,8.19 µM
same,TGI,BT-549 breast,23.9 µM
same,GI50,SF-295 CNS,3.74 µM
same,TGI,SF-295 CNS,13.8 µM
same,GI50,UACC-62 melanoma,2.46 µM
same,TGI,UACC-62 melanoma,7.07 µM
same,GI50,OVCAR-3 ovarian,3.59 µM
same,TGI,OVCAR-3 ovarian,15.3 µM
same,GI50,OVCAR-5 ovarian,10.2 µM
same,TGI,OVCAR-5 ovarian,22.3 µM
same,GI50,IGROV1 ovarian,7.33 µM
same,TGI,IGROV1 ovarian,20.9 µM
same,GI50,HT29 colon,2.18 µM
same,TGI,HT29 colon,5.14 µM
same,GI50,NCI-H460 lung,3.81 µM
same,TGI,NCI-H460 lung,14.6 µM
same,GI50,SK-OV-3 ovarian,17.3 µM
same,TGI,SK-OV-3 ovarian,32.3 µM
same,GI50,HCC-2998 colon,4.35 µM
same,TGI,HCC-2998 colon,15.5 µM
same,GI50,MOLT-4 leukemia,1.34 µM
same,TGI,MOLT-4 leukemia,12.8 µM
same,GI50,SR leukemia,1.79 µM
same,TGI,SR leukemia,5.5 µM
same,GI50,HL-60(TB) leukemia,1.78 µM
same,TGI,HL-60(TB) leukemia,3.74 µM
same,GI50,UACC-257 melanoma,1.86 µM
same,TGI,UACC-257 melanoma,3.81 µM
